Values joined by “and” are separate entries in the source; they are usually repeats but may differ in a detail not shown here. Equal values may be shown once. Read-outs that look alike come from different tables or passages of the source.
Assays:
[1] = target: human α-thrombin (Homo sapiens, UniProt P00734); test: Protease inhibition, Ki for human α-thrombin (fluorogenic substrate Z-Gly-Gly-Arg-AMC); format: biochemical; settings: human alpha thrombin; for Slope normalized to DMSO (proteolytic substrate cleavage over time): replicates R1-R3
In short: (§1)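 Ki derived through Cheng–Prusoff from IC50s (four-parameter logistic fit) against activity of peptide-free controls. Product fluorescence was read every 3 min over 30 min at 25 °C, substrate Z-Gly-Gly-Arg-AMC at 50 μM. Enzyme was 2 nM human or 3 nM rat α-thrombin, pH 7.4 buffer.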

[2] = target: T1, rat α-thrombin (Rattus norvegicus, UniProt P18292); test: Protease inhibition, Ki for rat α-thrombin (fluorogenic substrate Z-Gly-Gly-Arg-AMC); format: biochemical; settings: rat alpha thrombin; for Slope normalized to DMSO (proteolytic substrate cleavage over time): replicates R1-R3
T1 construct: rat α-thrombin (Molecular Innovations) were used at final concentrations of 2 nM and 3 nM; purchased Molecular Innovations
In short: as §1

[3] = target: T2, porcine pepsin (Sus scrofa, UniProt P00791); test: Peptide stability in simulated gastric fluid (SGF); format: in vitro ADME
T2 construct: 0.32 g of porcine pepsin (Sigma-Aldrich, P7125) was dissolved under gentle agitation; purchased Sigma-Aldrich P7125
T2 sequence (P00791 60-385): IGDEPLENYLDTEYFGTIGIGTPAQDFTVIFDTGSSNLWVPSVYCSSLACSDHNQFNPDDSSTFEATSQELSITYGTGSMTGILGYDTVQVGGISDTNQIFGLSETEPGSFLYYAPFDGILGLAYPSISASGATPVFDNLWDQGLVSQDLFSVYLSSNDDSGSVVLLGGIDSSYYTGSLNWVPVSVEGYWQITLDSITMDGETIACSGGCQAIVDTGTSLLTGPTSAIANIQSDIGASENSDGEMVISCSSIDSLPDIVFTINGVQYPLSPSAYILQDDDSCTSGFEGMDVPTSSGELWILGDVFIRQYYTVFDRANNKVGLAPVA
In short: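 Peptide from a 1 mM DMSO stock was added to fluid pre-warmed at 37 °C. SGF was pH 1.2 NaCl with porcine pepsin (0.32 g per 100 ml), and SIF was pH 6.8 potassium phosphate with porcine pancreatin (1 g per 100 ml). Supernatant peptide was quantified by LC–MS, with residual expressed as T1/T0.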

[4] = Passive artificial membrane permeability (PAMPA)
[5] = Metabolic stability in rat liver microsomes (RLMs); settings: for microsomal CLint / half-life: rat, microsomes

## O=C1C[C@H]2CCCN2C(=O)[C@H](Cc2ccccc2)NC(=O)[C@@H](NC(=O)c2ccc(Cl)s2)CCCSC/C=C/CSCCN1 [compound 36]
[1]; average of R1-R3, read-out: Ki Average, human alpha thrombin inhibition
  Ki: 286 nM
[1]; peptide 1.02E-03 uM
  Slope normalized to DMSO (proteolytic substrate cleavage over time): 96.6 and 96.1 and 97.6
[1]; peptide 1.04E+00 uM
  Slope normalized to DMSO (proteolytic substrate cleavage over time): 45.5 and 28.3 and 38.4
[1]; peptide 1.27E-04 uM
  Slope normalized to DMSO (proteolytic substrate cleavage over time): 99.5 and 101.3 and 100.1
[1]; peptide 1.30E-01 uM
  Slope normalized to DMSO (proteolytic substrate cleavage over time): 62.0 and 52.8 and 61.8
[1]; peptide 1.59E-05 uM
  Slope normalized to DMSO (proteolytic substrate cleavage over time): 98.6 and 105.1 and 101.6
[1]; peptide 1.63E-02 uM
  Slope normalized to DMSO (proteolytic substrate cleavage over time): 86.9 and 79.7 and 80.1
[1]; peptide 1.67E+01 uM
  Slope normalized to DMSO (proteolytic substrate cleavage over time): 5.9 and 8.4 and 12.3
[1]; peptide 2.03E-03 uM
  Slope normalized to DMSO (proteolytic substrate cleavage over time): 95.9 and 89.0 and 96.4
[1]; peptide 2.08E+00 uM
  Slope normalized to DMSO (proteolytic substrate cleavage over time): 22.1 and 26.4 and 30.9
[1]; peptide 2.54E-04 uM
  Slope normalized to DMSO (proteolytic substrate cleavage over time): 98.5 and 99.2 and 101.9
[1]; peptide 2.60E-01 uM
  Slope normalized to DMSO (proteolytic substrate cleavage over time): 51.6 and 49.5 and 56.4
[1]; peptide 3.18E-05 uM
  Slope normalized to DMSO (proteolytic substrate cleavage over time): 101.8 and 100.2 and 98.7
[1]; peptide 3.26E-02 uM
  Slope normalized to DMSO (proteolytic substrate cleavage over time): 82.4 (2×) and 76.9
[1]; peptide 3.33E+01 uM
  Slope normalized to DMSO (proteolytic substrate cleavage over time): 6.3 and 6.8 and 11.7
[1]; peptide 4.07E-03 uM
  Slope normalized to DMSO (proteolytic substrate cleavage over time): 100.1 and 90.9 and 93.8
[1]; peptide 4.17E+00 uM
  Slope normalized to DMSO (proteolytic substrate cleavage over time): 10.9 and 18.5 and 22.2
[1]; peptide 5.09E-04 uM
  Slope normalized to DMSO (proteolytic substrate cleavage over time): 105.8 and 102.8 and 98.4
[1]; peptide 5.21E-01 uM
  Slope normalized to DMSO (proteolytic substrate cleavage over time): 63.9 and 55.1 and 63.1
[1]; peptide 6.36E-05 uM
  Slope normalized to DMSO (proteolytic substrate cleavage over time): 96.6 and 96.9 and 98.9
[1]; peptide 6.51E-02 uM
  Slope normalized to DMSO (proteolytic substrate cleavage over time): 69.9 and 61.7 and 72.5
[1]; peptide 6.67E+01 uM
  Slope normalized to DMSO (proteolytic substrate cleavage over time): 8.8 and 12.5 and 11.5
[1]; peptide 7.95E-06 uM
  Slope normalized to DMSO (proteolytic substrate cleavage over time): 102.0 and 99.6 and 99.3
[1]; peptide 8.14E-03 uM
  Slope normalized to DMSO (proteolytic substrate cleavage over time): 95.5 and 84.9 and 92.8
[1]; peptide 8.33E+00 uM
  Slope normalized to DMSO (proteolytic substrate cleavage over time): 4.1 and 13.8 and 13.6
[1]; single replicates R1-R3, read-out: IC50, human alpha thrombin inhibition
  IC50: 453 nM and 218 nM and 444 nM
[1]; single replicates R1-R3, read-out: Ki, human alpha thrombin inhibition
  Ki: 349 nM and 168 nM and 342 nM
[2]; average of R1-R3, read-out: Ki Average, rat alpha thrombin inhibition
  Ki: 27.1 nM
[2]; peptide 1.02E-03 uM
  Slope normalized to DMSO (proteolytic substrate cleavage over time): 95.7 and 93.2 and 92.5
[2]; peptide 1.04E+00 uM
  Slope normalized to DMSO (proteolytic substrate cleavage over time): 20.0 and 16.8 and 13.2
[2]; peptide 1.27E-04 uM
  Slope normalized to DMSO (proteolytic substrate cleavage over time): 100.2 (2×) and 94.0
[2]; peptide 1.30E-01 uM
  Slope normalized to DMSO (proteolytic substrate cleavage over time): 40.2 and 33.7 and 29.3
[2]; peptide 1.59E-05 uM
  Slope normalized to DMSO (proteolytic substrate cleavage over time): 102.8 and 104.6 and 99.0
[2]; peptide 1.63E-02 uM
  Slope normalized to DMSO (proteolytic substrate cleavage over time): 70.9 and 69.0 and 58.5
[2]; peptide 1.67E+01 uM
  Slope normalized to DMSO (proteolytic substrate cleavage over time): 6.7 and 7.6 and -3.8
[2]; peptide 2.03E-03 uM
  Slope normalized to DMSO (proteolytic substrate cleavage over time): 92.4 and 90.4 and 105.7
[2]; peptide 2.08E+00 uM
  Slope normalized to DMSO (proteolytic substrate cleavage over time): 14.7 and 13.1 and 8.2
[2]; peptide 2.54E-04 uM
  Slope normalized to DMSO (proteolytic substrate cleavage over time): 98.1 and 97.6 and 92.4
[2]; peptide 2.60E-01 uM
  Slope normalized to DMSO (proteolytic substrate cleavage over time): 33.9 and 26.8 and 32.5
[2]; peptide 3.18E-05 uM
  Slope normalized to DMSO (proteolytic substrate cleavage over time): 102.6 and 99.4 and 97.6
[2]; peptide 3.26E-02 uM
  Slope normalized to DMSO (proteolytic substrate cleavage over time): 65.2 and 58.8 and 53.9
[2]; peptide 3.33E+01 uM
  Slope normalized to DMSO (proteolytic substrate cleavage over time): 6.5 and 6.8 and 3.9
[2]; peptide 4.07E-03 uM
  Slope normalized to DMSO (proteolytic substrate cleavage over time): 89.6 and 87.8 and 79.0
[2]; peptide 4.17E+00 uM
  Slope normalized to DMSO (proteolytic substrate cleavage over time): 10.5 and 9.5 and 2.3
[2]; peptide 5.09E-04 uM
  Slope normalized to DMSO (proteolytic substrate cleavage over time): 97.9 and 94.9 and 105.4
[2]; peptide 5.21E-01 uM
  Slope normalized to DMSO (proteolytic substrate cleavage over time): 40.1 and 33.7 and 38.8
[2]; peptide 6.36E-05 uM
  Slope normalized to DMSO (proteolytic substrate cleavage over time): 100.2 and 99.0 and 96.8
[2]; peptide 6.51E-02 uM
  Slope normalized to DMSO (proteolytic substrate cleavage over time): 49.2 and 44.9 and 38.0
[2]; peptide 6.67E+01 uM
  Slope normalized to DMSO (proteolytic substrate cleavage over time): 8.1 and 8.3 and 4.7
[2]; peptide 7.95E-06 uM
  Slope normalized to DMSO (proteolytic substrate cleavage over time): 104.1 and 101.6 and 100.1
[2]; peptide 8.14E-03 uM
  Slope normalized to DMSO (proteolytic substrate cleavage over time): 83.6 and 78.8 and 74.4
[2]; peptide 8.33E+00 uM
  Slope normalized to DMSO (proteolytic substrate cleavage over time): 19.0 and 7.9 and 5.9
[2]; single replicates R1-R3, read-out: IC50, rat alpha thrombin inhibition
  IC50: 60.7 nM and 43.2 nM and 43 nM
[2]; single replicates R1-R3, read-out: Ki, rat alpha thrombin inhibition
  Ki: 33.6 nM (2×) and 23.9 nM (2×) and 23.8 nM (2×)
[3]; after 8 h vs 0 h (TIC), average of R1-R3
  SGF stability, Residual peptide Average: 87.04
[3]; after 8 h vs 0 h (TIC), single replicates R1-R3
  SGF stability, Residual peptide: 86.50 and 93.65 and 80.97
[3]; simulated gi fluid, 8 h, 37 °C, pH 1.2, read-out: Proteolytic stability: SGF (8 h) % remaining
  remaining at 8 h: 87 ± 6%
[4]; 50 μM, 12–18 h, acceptor concentration relative to equilibrium
  PAMPA permeability: % permeability: 26 ± 9%
[4]; PAMPA, pH 7.4
  Papp at 50 μM: 2.88 ×10⁻⁶ cm/s
[4]; top well sample vs theoretical equilibrium sample (TIC), average of R1-R3
  Permeability% Average: 26.1%
[4]; top well sample vs theoretical equilibrium sample (TIC), single replicates R1-R3
  Permeability%: 30.77% and 15.94% and 31.49%
[5]; rat liver microsomes, 0 min, replicate R1
  TIC value of compound, 0 min, R1: 9960125
[5]; rat liver microsomes, 0 min, replicate R3
  TIC value of compound, 0 min, R3: 9584351
[5]; rat liver microsomes, 5 min, replicate R1
  TIC value of compound, 5 min, R1: 8960155
[5]; rat liver microsomes, 5 min, replicate R3
  TIC value of compound, 5 min, R3: 9591941
[5]; rat liver microsomes, 15 min, replicate R1
  TIC value of compound, 15 min, R1: 6029519
[5]; rat liver microsomes, 15 min, replicate R3
  TIC value of compound, 15 min, R3: 6211335
[5]; rat liver microsomes, 30 min, replicate R1
  TIC value of compound, 30 min, R1: 3459884
[5]; rat liver microsomes, 30 min, replicate R3
  TIC value of compound, 30 min, R3: 2699618
[5]; rat liver microsomes, 60 min, replicate R1
  TIC value of compound, 60 min, R1: 607530
[5]; rat liver microsomes, 60 min, replicate R3
  TIC value of compound, 60 min, R3: 705245
[5]; CL (ul/min/mg protein), R1, RLM CL, replicate R1, unrounded
  microsomal CLint: 70.7 µL/min/mg
[5]; CL (ul/min/mg protein), R2, RLM CL, replicate R2, unrounded
  microsomal CLint: 61.9 µL/min/mg
[5]; CL (ul/min/mg protein), R3, RLM CL, replicate R3, unrounded
  microsomal CLint: 69.3 µL/min/mg
[5]; Half Life (min), R1, RLM metabolic stability, replicate R1
  half-life: 19.6 min
[5]; Half Life (min), R2, RLM metabolic stability, replicate R2
  half-life: 22.4 min
[5]; Half Life (min), R3, RLM metabolic stability, replicate R3
  half-life: 20 min
[5]; Metabolic stability: Half life T1/2 (min), RLMs, mean and SD, three measurements
  half-life: 21 ± 1 min
[5]; Metabolic stability: RLM CL (ul/min/mg), RLMs, mean and SD, three measurements
  microsomal CLint: 67 ± 4 µL/min/mg
[5]; RLM CL, Average, average of R1-R3
  microsomal CLint: 67.3 µL/min/mg
[5]; RLM CL, R1, RLM CL, replicate R1, summary block
  microsomal CLint: 70.7 µL/min/mg
[5]; RLM CL, R2, RLM CL, replicate R2, summary block
  microsomal CLint: 61.9 µL/min/mg
[5]; RLM CL, R3, RLM CL, replicate R3, summary block
  microsomal CLint: 69.3 µL/min/mg

Source: article PMC11062899, “De novo development of small cyclic peptides that are orally bioavailable” (Nature Chemical Biology, 2023)
